Patent US20160160294A1, “METHODS AND MATERIALS FOR PREDICTING RESPONSE TO NIRAPARIB” (Tesaro, priority 2014, published 2016)
Like-named read-outs stand apart in the source and are kept apart here.

Key:
[1] = tested on: TNBC patient-derived xenograft (PDX) models
Method: Mice were assigned to homogeneous groups of 10 animals when tumors reached a size of 70-200 mm^3, and were treated with niraparib at 50 mg/kg or 75 mg/kg once a day for 28 days. The compound was delivered by gavage (p.o) under a volume of […] for a 25-g mouse. Tumor volume was evaluated by measuring biweekly tumor diameters with a caliper.

[2] = tested on: ovarian cancer PDX models
Method: A series of ovarian tumors were implanted orthotopically in mice and the resulting patient-derived xenograft (PDX) models were evaluated for niraparib sensitivity by ultrasound imaging. The BRCA status (mutated “BRCAmut” or wild-type “BRCAwt”) of each PDX model was evaluated, with BRCA1/2 variants identified by the test were classified in accordance with the recommendations of the American College of Medical Genetics and Genomics (ACMG) for standards in the interpretation and reporting of sequence variations. HRD scores were also determined for the PDX models as described in Examples 1 & 2.

[3] = tested on: basal breast cancer (BBC) patient-derived xenograft (PDX) models; settings: subset of BBC PDX models; cited from earlier work

SMILES: NC(=O)c1cccc2cn(-c3ccc([C@@H]4CCCNC4)cc3)nc12 [niraparib]
- effect on tumor volume ([1]; T330 model (FIG. 8)): regression of tumor volume
- number of TNBC PDX models whose growth was significantly inhibited ([1]; among 20 tested, 50 mg/kg or 75 mg/kg once a day for 28 days, p.o.): 6
- activity in TNBC PDX models ([1]; subset of TNBC PDX models): robust activity
- Response rate ([2]; All models (8/26)): 31% (8/26)
- Response rate ([2]; BRCA1/2 deficient models (4/8)): 50% (4/8)
- Response rate ([2]; HRD+ BRCA wt models (4/8)): 50% (4/8)
- response of BBC PDX models to single agent treatment [3]: responded robustly
